# Assay results as given in article PMC7705649 (Scientific Reports, 2020).
# “And” between values parts separate entries of the source, which are not always exact repeats. Equal entries are not always repeated. Where two headings read alike, the source gives them in different places.
# Experiments:
# [1] = RP-HPLC hydrophobicity determination (C18 column); assay type: physicochemical; settings: Symmetry C18, phosphate-buffered saline/methanol, y-intercept of log k vs methanol fraction, 25 °C; ± 95% confidence interval
# Method: All HPLC measurements were carried out on an Agilent 1100 series HPLC system (Agilent Technologies, Waldbronn, Germany) coupled with a diode array detector (DAD). System control, data collection and data processing were accomplished using ChemStation for LC 3D software by Agilent Technologies. RP-HPLC hydrophobicity determination was carried on Symmetry C18 reversed-phase column (150 × 4.6 mm, 3.5 µm particle size) obtained by Waters (Milford, MA, USA), with phosphate-buffered saline and methanol as mobile phase. The flow rate was set at 1.0 mL/min with the injection volume of 10.0 µL whilst the column temperature was maintained at 25.0 ± 0.1 °C. To obtain hydrophobicity, the log k values were calculated using retention times of investigated compounds (tR) and retention time of sodium nitrate as unretained compound (t0). […] At least five different concentrations of methanol in the mobile phase were applied for each standard substance and all measurements at each methanol fraction were performed in triplicates. […] Column equilibration time of 20 min was necessary after every change of mobile phase. Finally, log kw C18 value, describing hydrophobicity, was obtained by calculating the y-intercept of the regression line in a plot of log k vs. methanol fraction in the mobile phase.
# [2] = Affinity for immobilized phospholipids (IAM chromatography); assay type: physicochemical; settings: IAM.PC.DD2 column, phosphate-buffered saline/methanol, y-intercept of log k vs methanol fraction; ± 95% confidence interval
# From the text: The same HPLC conditions, mobile phases and calculation approaches were used for evaluation of IAM affinity, as in determining hydrophobicity with the RP-HPLC column.
# [3] = system: α1-acid-glycoprotein; assay: Plasma protein binding on biomimetic AGP column; assay type: in vitro ADME; settings: for PPBAGP (%): binding percentage to α1-acid-glycoprotein, biomimetic column, ± RSD (%)
# [4] = molecular target: T1, human serum albumin (Homo sapiens, UniProt P02768); settings: binding percentage to human serum albumin, biomimetic column, ± RSD (%)
# [5] = molecular target: T1, human serum albumin; assay: Frontal analysis of FA on HSA column (HPAC); assay type: binding
# Method: Frontal and zonal elution studies were carried out on HSA (Chiralpak-HSA, 50 × 4.6 mm, 5 μm particle size) biomimetic column obtained by ChromTech (Cedex, France). […] Injection volume was set at 10.0 µL and the measurements were carried out at 25.0 ± 0.1 °C.
# T1 sequence (P02768 25-609): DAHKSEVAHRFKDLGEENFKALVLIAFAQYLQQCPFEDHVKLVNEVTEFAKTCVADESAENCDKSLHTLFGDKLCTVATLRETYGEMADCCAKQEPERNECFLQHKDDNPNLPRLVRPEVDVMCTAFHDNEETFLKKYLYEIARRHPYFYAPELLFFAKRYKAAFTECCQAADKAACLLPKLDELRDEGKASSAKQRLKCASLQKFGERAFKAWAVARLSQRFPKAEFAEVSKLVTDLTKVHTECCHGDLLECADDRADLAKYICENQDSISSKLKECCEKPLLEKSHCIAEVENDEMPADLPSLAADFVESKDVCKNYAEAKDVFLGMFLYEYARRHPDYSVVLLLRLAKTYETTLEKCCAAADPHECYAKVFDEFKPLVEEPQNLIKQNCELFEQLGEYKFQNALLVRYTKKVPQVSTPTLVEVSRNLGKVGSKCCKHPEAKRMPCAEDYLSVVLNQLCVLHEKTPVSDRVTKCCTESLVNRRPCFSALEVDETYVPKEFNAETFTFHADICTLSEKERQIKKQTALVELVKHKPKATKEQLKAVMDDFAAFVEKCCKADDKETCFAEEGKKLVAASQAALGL
smiles,measurement,setting,value
"O=C(O)CCNC(=O)c1ccc(/N=N/c2ccc(O)c(C(=O)O)c2)cc1 [BSZ, balsalazide]",log kw C18,[1],3.01 ± 0.09
same,log kw IAM,[2],1.20 ± 0.11
same,PPBAGP (%),[3],77.60 ± 0.58%
same,affinity for AGP lower than for HSA,[3]; difference PPBHSA minus PPBAGP,14%
same,PPBHSA (%),[4],91.64 ± 0.04%
"Nc1nc2ncc(CNc3ccc(C(=O)N[C@@H](CCC(=O)O)C(=O)O)cc3)nc2c(=O)[nH]1 [FA, folic acid]",log kw C18,[1],0.99 and 0.99 ± 0.31
same,PPBAGP (%),[3],3.45%
same,moles of binding sites (mL),"[5]; frontal analysis, HSA column, brackets = 95% confidence interval",2.34 (± 1.16) × 10^–7 mol
same,type of binding site on HSA,"[5]; linear double-reciprocal plot, 1-20 µM FA",single type of binding site
same,PPBHSA (%),[4],69.40 ± 0.53%
same,PPBHSA (%),[4]; listed as folic acid,69.40%
"Nc1ccc(O)c(C(=O)O)c1 [MSZ, mesalazine]",log kw C18,[1],0.37 and 0.37 ± 0.19
same,log kw IAM,[2],0.17 and 0.17 ± 0.02
same,PPBHSA (%),[4],61.44 ± 0.51%
"O=C(O)c1cc(/N=N/c2ccc(O)c(C(=O)O)c2)ccc1O [OSZ, olsalazine]",log kw C18,[1],3.25 ± 0.09
same,log kw IAM,[2],1.69 ± 0.17
same,PPBHSA (%),[4],96.00 ± 0.03%
"O=C(O)c1cc(/N=N/c2ccc(S(=O)(=O)Nc3ccccn3)cc2)ccc1O [SASP, sulfasalazine]",log kw C18,[1],3.71 ± 0.24
same,log kw IAM,[2],2.77 ± 0.23
